Test results published in ChEMBL document CHEMBL1909046, “DrugMatrix in vitro pharmacology data”.

Columns and labels:
[1] = DRUGMATRIX: ATPase, Na+/K+ enzyme inhibition (substrate: ATP); format: tissue-based, Sus scrofa, Heart; settings: Not Active = under 50% inhibition at 10 µM
[2] = DRUGMATRIX: Sigma2 radioligand binding (ligand: [3H] Ifenprodil); format: cell membranes, Rattus norvegicus, Wistar, Brain, Membrane; settings: Not Active = under 50% inhibition at 10 µM
Glycine receptor = Glycine receptor (Rattus norvegicus, UniProt P22771+P24524+P07727+P20781); format: cell membranes, Wistar, Spinal cord, Membrane; also: in other assays of this panel Not Active means under 50% inhibition at 10 µM
[3] = target: T1, Nitric oxide synthase, inducible (Mus musculus, UniProt P29477); parameters: species or system Escherichia coli;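 also: inhibition of iNOS enzyme activity measured with L-arginine as substrate; in other assays of this panel Not Active means under 50% inhibition at 10 µM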
T1 sequence (P29477 whole entry): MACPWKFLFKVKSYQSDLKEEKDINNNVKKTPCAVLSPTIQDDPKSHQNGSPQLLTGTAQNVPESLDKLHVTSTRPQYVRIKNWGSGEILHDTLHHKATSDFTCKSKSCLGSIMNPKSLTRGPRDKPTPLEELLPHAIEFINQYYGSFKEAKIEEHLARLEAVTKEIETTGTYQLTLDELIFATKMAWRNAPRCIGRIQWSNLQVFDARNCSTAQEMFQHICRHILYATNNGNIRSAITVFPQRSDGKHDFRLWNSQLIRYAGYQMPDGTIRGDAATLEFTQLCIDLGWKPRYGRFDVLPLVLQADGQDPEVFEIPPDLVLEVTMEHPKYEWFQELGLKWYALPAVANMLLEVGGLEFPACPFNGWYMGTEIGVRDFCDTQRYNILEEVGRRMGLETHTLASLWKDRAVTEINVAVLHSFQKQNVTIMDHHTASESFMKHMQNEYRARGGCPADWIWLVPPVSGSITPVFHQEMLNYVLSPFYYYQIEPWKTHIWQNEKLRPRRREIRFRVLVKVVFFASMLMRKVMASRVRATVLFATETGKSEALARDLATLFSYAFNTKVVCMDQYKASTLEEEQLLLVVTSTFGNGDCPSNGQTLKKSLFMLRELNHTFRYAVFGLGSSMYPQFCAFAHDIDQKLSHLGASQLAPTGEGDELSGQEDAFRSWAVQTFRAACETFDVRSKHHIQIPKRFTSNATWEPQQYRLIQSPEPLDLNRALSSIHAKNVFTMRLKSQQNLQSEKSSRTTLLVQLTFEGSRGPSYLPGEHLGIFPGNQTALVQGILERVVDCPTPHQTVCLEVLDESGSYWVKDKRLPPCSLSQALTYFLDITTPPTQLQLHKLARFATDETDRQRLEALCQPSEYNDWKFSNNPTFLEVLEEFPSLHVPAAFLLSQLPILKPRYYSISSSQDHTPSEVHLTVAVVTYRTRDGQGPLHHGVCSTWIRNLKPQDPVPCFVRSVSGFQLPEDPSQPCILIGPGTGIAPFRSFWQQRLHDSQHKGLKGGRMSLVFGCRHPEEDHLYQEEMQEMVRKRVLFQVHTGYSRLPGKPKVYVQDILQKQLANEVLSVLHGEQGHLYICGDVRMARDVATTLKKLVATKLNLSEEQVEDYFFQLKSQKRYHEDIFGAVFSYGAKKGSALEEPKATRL

[4] = target: Delta-type opioid receptor (Homo sapiens, UniProt P41143); format: cell membranes, HEK293, Membrane; settings: hek293; also: in other assays of this panel Not Active means under 50% inhibition at 10 µM
Sequence of Delta-type opioid receptor (P41143 whole entry): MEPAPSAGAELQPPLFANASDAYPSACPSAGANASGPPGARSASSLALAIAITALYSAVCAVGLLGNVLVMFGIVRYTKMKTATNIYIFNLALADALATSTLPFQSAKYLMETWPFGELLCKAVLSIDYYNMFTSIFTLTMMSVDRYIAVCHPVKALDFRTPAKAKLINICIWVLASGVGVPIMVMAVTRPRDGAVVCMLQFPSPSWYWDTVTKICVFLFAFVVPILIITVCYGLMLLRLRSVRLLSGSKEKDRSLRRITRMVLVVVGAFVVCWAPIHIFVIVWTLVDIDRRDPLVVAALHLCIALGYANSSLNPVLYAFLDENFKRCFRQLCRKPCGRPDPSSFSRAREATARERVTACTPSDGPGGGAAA

[5] = target: cGMP-specific 3',5'-cyclic phosphodiesterase (Homo sapiens, UniProt O76074); assay: DRUGMATRIX: Phosphodiesterase PDE5 enzyme inhibition (substrate: [3H]cGMP + cGMP); format: tissue-based; settings: platelet; Not Active = under 50% inhibition at 10 µM
[6] = target: Protein kinase C alpha type (Homo sapiens, UniProt P17252); format: cell-based; settings: sf9;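 also: inhibition of PKCalpha kinase activity measured in an enzyme assay with histone as the phosphorylation substrate; in other assays of this panel Not Active means under 50% inhibition at 10 µM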

Compound	IC50 [1]	Ki [1]	IC50 ([2]; read-out: IC50) [µM]	Ki ([2]; read-out: Ki) [µM]	IC50 (Glycine receptor)	IC50 [3]	IC50 [4]	IC50 [5]	IC50 [6]	IC50 [2]	Ki [2]	Ki (Glycine receptor)	Ki [3]	Ki [4]	Ki [5]	Ki [6]
CC(C)N1CCN(c2ccc(OCC3COC(Cn4cncn4)(c4ccc(Cl)cc4Cl)O3)cc2)CC1 (centres undefined) [TERCONAZOLE]	Not Active	Not Active	0.317	0.195	Not Active	Not Active	Not Active	Not Active	Not Active	–	–	–	–	–	–	–
Nc1nc2nc[nH]c2c(=S)[nH]1 [THIOGUANINE]	Not Active	Not Active	–	–	Not Active	Not Active	Not Active	Not Active	Not Active	Not Active	Not Active	–	–	–	–	–
Cc1cccc(N(C)C(=S)Oc2ccc3ccccc3c2)c1 [TOLNAFTATE]	Not Active	Not Active	–	–	Not Active	Not Active	Not Active	Not Active	Not Active	Not Active	Not Active	–	–	–	–	–
NC[C@H]1CC[C@H](C(=O)O)CC1 [TRANEXAMIC ACID]	Not Active	Not Active	–	–	Not Active	Not Active	Not Active	Not Active	Not Active	Not Active	Not Active	–	–	–	–	–
CC1(C)O[C@@H]2C[C@H]3[C@@H]4CCC5=CC(=O)C=C[C@]5(C)[C@@]4(F)[C@@H](O)C[C@]3(C)[C@]2(C(=O)CO)O1 [TRIAMCINOLONE ACETONIDE]	Not Active	Not Active	–	–	Not Active	Not Active	Not Active	Not Active	Not Active	Not Active	Not Active	–	–	–	–	–
NS(=O)(=O)c1cc2c(cc1Cl)NC(C(Cl)Cl)NS2(=O)=O (centres undefined) [TRICHLORMETHIAZIDE]	Not Active	Not Active	–	–	Not Active	Not Active	Not Active	Not Active	Not Active	Not Active	Not Active	–	–	–	–	–
Cc1c(C)c2c(c(C)c1O)CCC(C)(COc1ccc(CC3SC(=O)NC3=O)cc1)O2 (centres undefined) [TROGLITAZONE]	Not Active	Not Active	–	–	Not Active	Not Active	Not Active	Not Active	Not Active	Not Active	Not Active	–	–	–	–	–
N[C@@H]1[C@H]2CN(c3nc4c(cc3F)c(=O)c(C(=O)O)cn4-c3ccc(F)cc3F)C[C@@H]12 [TROVAFLOXACIN]	Not Active	Not Active	–	–	Not Active	Not Active	Not Active	Not Active	Not Active	Not Active	Not Active	–	–	–	–	–
N#CC(C#N)=Cc1ccc(O)c(O)c1 [TYRPHOSTIN 23]	Not Active	Not Active	–	–	Not Active	Not Active	Not Active	Not Active	Not Active	Not Active	Not Active	–	–	–	–	–
CC[C@]1(O)C[C@H]2CN(CCc3c([nH]c4ccccc34)[C@@](C(=O)OC)(c3cc4c(cc3OC)N(C=O)[C@H]3[C@@](O)(C(=O)OC)[C@H](OC(C)=O)[C@]5(CC)C=CCN6CC[C@]43[C@@H]65)C2)C1 [VINCRISTINE]	Not Active	Not Active	–	–	Not Active	Not Active	Not Active	Not Active	Not Active	Not Active	Not Active	–	–	–	–	–
SODIUM NITROPRUSSIDE	Not Active	Not Active	–	–	Not Active	Not Active	Not Active	Not Active	Not Active	Not Active	Not Active	Not Active	Not Active	Not Active	Not Active	Not Active
